In brackets after ≈: the same amount, converted by molar mass. Residues, ends and D or L forms follow the SMILES beside them.
Key:
Format in all cases: cell-based
[1] = test system: E.coli 208
Method: (§1) Standard strains included S. aureus ATCC33592, S. aureus CICC25138, and Salmonella enterica ATCC14028, which were purchased from the China Center of Industrial Culture Collection (CICC). Standard strains including E.coli CMCC44102, Salmonella enterica CMCC50071, and S. aureus CMCC26003 were purchased from the National Center for Medical Culture Collections (CMCC). […] All experiments using the above strains were carried out in a BSL‐2 laboratory. The clinical laboratory of Qilu Hospital detected bacterial resistance to various antibiotics. All strains were streaked on Nutrient Broth (NB) agar medium and incubated overnight at 37°C.
(§2) The antimicrobial activity of the peptides was examined in sterile 96‐well plates using the broth microdilution according to the CLSI standard. The colonies were suspended in saline solution, the turbidity was adjusted to McFarland 0.5 to reach a bacterial concentration of 10^8 CFU/mL, and again diluted 100 times for the inhibition test. Then, 50 µL of bacterial suspension at 1 × 10^6 CFU/mL was incubated with the same volume of different concentrations of peptide solution [serial twofold dilutions in Mueller–Hinton Broth (Hopebio)]. […] All experiments were performed with three independent replicates.

[2] = test system: P. aeruginosa 116
Method: as §1, §2

[3] = test system: E. faecium 21
Method: as §1, §2

[4] = test system: E. faecium 1042
Method: as §1, §2

[5] = test system: S. aureus 103
Method: as §1, §2

[6] = test system: K. pneumoniae 7713
Method: as §1, §2

[7] = test system: P. aeruginosa 119
Method: as §1, §2

[8] = test system: E.coli 110
Method: as §1, §2

[9] = test system: S. aureus 129
Method: as §1, §2

[10] = test system: S. aureus CICC25138
Method: as §1, §2

[11] = test system: P. aeruginosa 112
Method: as §1, §2

[12] = test system: S. aureus ATCC33592
Method: as §1, §2

Row | Compound | MIC (μg/mL) E.coli 208 [1] | MIC (μg/mL) P. aeruginosa 116 [2] | MIC (μg/mL) E. faecium 21 [3] | MIC (μg/mL) E. faecium 1042 [4] | MIC (μg/mL) S. aureus 103 [5] | MIC (μg/mL) K. pneumoniae 7713 [6] | MIC (μg/mL) P. aeruginosa 119 [7] | MIC (μg/mL) E.coli 110 [8] | MIC (μg/mL) S. aureus 129 [9] | MIC (μg/mL) S. aureus CICC25138 [10] | MIC (μg/mL) P. aeruginosa 112 [11] | MIC (μg/mL) S. aureus ATCC33592 [12]
1 | CC[C@H](C)[C@H](NC(=O)[C@H](CCCCN)NC(=O)[C@H](Cc1c[nH]c2ccccc12)NC(=O)[C@@H](N)CCCCN)C(=O)N[C@@H](CCCCN)C(=O)N[C@@H](Cc1c[nH]c2ccccc12)C(=O)N1CCC[C@H]1C(=O)N[C@@H](CO)C(=O)N[C@@H](CC(N)=O)C(=O)N[C@@H](Cc1c[nH]c2ccccc12)C(=O)N[C@@H](Cc1ccccc1)C(=O)N[C@H](C(=O)N[C@@H](CCCCN)C(=O)N[C@@H](CC(C)C)C(N)=O)[C@@H](C)O [QLX-3DV-3] (H-KWKIKWPSNWFTKL-NH2) | 8 µg/mL (≈ 4.3 µM) | 16 µg/mL (≈ 8.6 µM) | 8 µg/mL (≈ 4.3 µM) | 8 µg/mL (≈ 4.3 µM) | 32 µg/mL (≈ 17.2 µM) | 16 µg/mL (≈ 8.6 µM) | 32 µg/mL (≈ 17.2 µM) | 16 µg/mL (≈ 8.6 µM) | 64 µg/mL (≈ 34.4 µM) | 32 µg/mL (≈ 17.2 µM) | 32 µg/mL (≈ 17.2 µM) | 32 µg/mL (≈ 17.2 µM)
2 | CC[C@H](C)[C@H](NC(=O)[C@H](CCCCN)NC(=O)[C@H](Cc1c[nH]c2ccccc12)NC(=O)[C@@H](N)CCCCN)C(=O)N[C@@H](CCCCN)C(=O)N[C@@H](Cc1c[nH]c2ccccc12)C(=O)N1CCC[C@H]1C(=O)N[C@@H](CO)C(=O)N[C@@H](CCCNC(=N)N)C(=O)N[C@@H](Cc1c[nH]c2ccccc12)C(=O)N[C@@H](Cc1ccccc1)C(=O)N[C@H](C(=O)N[C@@H](CCCCN)C(=O)N[C@@H](CC(C)C)C(N)=O)[C@@H](C)O [QLX-3DV-4] (H-KWKIKWPSRWFTKL-NH2) | 16 µg/mL (≈ 8.41 µM) | 32 µg/mL (≈ 16.8 µM) | 8 µg/mL (≈ 4.2 µM) | 16 µg/mL (≈ 8.41 µM) | 16 µg/mL (≈ 8.41 µM) | 16 µg/mL (≈ 8.41 µM) | 32 µg/mL (≈ 16.8 µM) | 32 µg/mL (≈ 16.8 µM) | 32 µg/mL (≈ 16.8 µM) | 16 µg/mL (≈ 8.41 µM) | 32 µg/mL (≈ 16.8 µM) | 32 µg/mL (≈ 16.8 µM)
3 | CC[C@H](C)[C@H](NC(=O)[C@H](CCCCN)NC(=O)[C@H](Cc1c[nH]c2ccccc12)NC(=O)[C@@H](N)CCCCN)C(=O)N[C@@H](CCCCN)C(=O)N[C@@H](CCCNC(=N)N)C(=O)N1CCC[C@H]1C(=O)N[C@H](C(=O)N[C@@H](CCCCN)C(=O)N[C@@H](Cc1c[nH]c2ccccc12)C(=O)N[C@@H](Cc1ccccc1)C(=O)N[C@H](C(=O)N[C@@H](CCSC)C(=O)N[C@@H](CC(C)C)C(N)=O)[C@@H](C)O)C(C)C [QLX-3DV-5] (H-KWKIKRPVKWFTML-NH2) | 8 µg/mL (≈ 4.3 µM) | 128 µg/mL (≈ 68.8 µM) | 8 µg/mL (≈ 4.3 µM) | 32 µg/mL (≈ 17.2 µM) | 32 µg/mL (≈ 17.2 µM) | 8 µg/mL (≈ 4.3 µM) | 64 µg/mL (≈ 34.4 µM) | 8 µg/mL (≈ 4.3 µM) | 128 µg/mL (≈ 68.8 µM) | 64 µg/mL (≈ 34.4 µM) | 16 µg/mL (≈ 8.6 µM) | 64 µg/mL (≈ 34.4 µM)
4 | CC[C@H](C)[C@H](NC(=O)[C@H](CCCCN)NC(=O)[C@H](CCCNC(=N)N)NC(=O)[C@@H](N)CCCCN)C(=O)N[C@@H](CCCCN)C(=O)N[C@@H](Cc1c[nH]c2ccccc12)C(=O)N[C@@H](Cc1c[nH]c2ccccc12)C(=O)N[C@H](C(=O)N[C@@H](CCCNC(=N)N)C(=O)N[C@@H](Cc1c[nH]c2ccccc12)C(=O)N[C@H](C(=O)N[C@H](C(=O)N[C@@H](CCCCN)C(=O)N[C@@H](CC(C)C)C(N)=O)[C@@H](C)O)[C@@H](C)CC)C(C)C [QLX-3DV-8] (H-KRKIKWWVRWITKL-NH2) | – | 8 µg/mL (≈ 4.12 µM) | 4 µg/mL (≈ 2.06 µM) | 8 µg/mL (≈ 4.12 µM) | 8 µg/mL (≈ 4.12 µM) | 8 µg/mL (≈ 4.12 µM) | 32 µg/mL (≈ 16.5 µM) | – | 8 µg/mL (≈ 4.12 µM) | 16 µg/mL (≈ 8.25 µM) | 16 µg/mL (≈ 8.25 µM) | –
